What was measured:
A549 (lung cancer) = test: MTT cytotoxicity assay, A549; format: cell-based; conditions: Homo sapiens, 48 h of drug treatment (footnote), average of three experiments
Excerpt: (§1) The N-((1-phenyl-9H-pyrido[3,4-b]indol-3-yl)methyl)cinnamamides (1a-h, 2a-h and 3a-h) have been tested against five human cancer cell lines such as A549 (lung cancer), MCF-7 (breast cancer), B16 (melanoma), HeLa (cervical cancer) and NIH3T3 (mouse embryonic fibroblast cancer). All the cancer cell lines (HeLa, A549, MCF-7 and B16) were procured from National Centre for Cell Sciences (NCCS, Pune, India) and NIH 3T3 cell line was obtained from American Type Culture Collection (Rockville, Md., USA). Stock cells were cultured in DMEM supplemented with 10% Fetal Bovine Serum (FBS), in an humidified atmosphere of 5% CO2 at 37° C. until they are 80% confluent. To study the cytotoxicity of the compounds, after 80% confluence, cells were trypsinized with 0.1% trypsin-EDTA and harvested by centrifugation at 500×g. Serial dilutions of cells were made from 1×10^6 to 1×10^3 cells per mL The cells were seeded in triplicate in a 96 well plate. […]. […] The cell viability was determined by measuring the ability of cells to transform MTT to a purple coloured formazan dye. The absorbance of samples at 570 nm was measured using a UV-Visible spectrophotometer. Percentage of viable cells was calculated by using the formula given below.
Where the OD570 (sample) corresponds to absorbance obtained from the wells treated with compound and OD570 (control) represents the absorbance from the wells in which no compound was added.

[1] = system: NIH3T3 (mouse embryonic fibroblast cell line); test: MTT cytotoxicity assay, NIH3T3; format: cell-based; conditions: 48 h of drug treatment (footnote), average of three experiments
Excerpt: as §1
(§2) Where the OD570 (sample) corresponds to absorbance obtained from the wells treated with compound and OD570 (control) represents the absorbance from the wells in which no compound was added. For these compounds results are expressed as half maximal inhibitory concentration (IC50) values and the anticancer activity data of 1a-h, 2a-h and 3a-h are shown in Table 2.

MCF-7 (breast cancer) = test: MTT cytotoxicity assay, MCF-7; format: cell-based; conditions: Homo sapiens, MCF7, average of three experiments
Excerpt: as §1, §2

HeLa (cervical cancer) = test: MTT cytotoxicity assay, HeLa; format: cell-based; conditions: Homo sapiens, of drug treatment (footnote), average of three experiments
Excerpt: as §1, §2

B16 (melanoma) = test: MTT cytotoxicity assay, B16; format: cell-based; conditions: 48 h of drug treatment (footnote), average of three experiments
Excerpt: as §1, §2

Row | melting point [°C] | SMILES | IC50 (A549 (lung cancer)) [µM] | IC50 [1] [µM] | IC50 (MCF-7 (breast cancer)) [µM] | IC50 (HeLa (cervical cancer)) [µM] | IC50 (B16 (melanoma)) [µM]
1 | 145 to 148 | COc1ccc(-c2nc(CNC(=O)/C=C/c3ccc(F)cc3)cc3c2[nH]c2ccccc23)cc1 [Compound 3c, (E)-3-(4-fluorophenyl)-N-((1-(4-methoxyphenyl)-9H-pyrido[3,4-b]indol-3-yl)methyl)acrylamide] | 0.0202 ± 0.0013 | 0.0369 ± 0.0016 | 0.0182 ± 0.0007 | 0.0228 ± 0.0006 | 0.0219 ± 0.0003
2 |  | COc1cc(-c2nc(CNC(=O)/C=C/c3ccc(Cl)c(Cl)c3)cc3c2[nH]c2ccccc23)cc(OC)c1OC [Compound 2b, (E)-3-(3,4-dichlorophenyl)-N-((1-(3,4,5-trimethoxyphenyl)-9H-pyrido[3,4-b]indol-3-yl)methyl)acrylamide] | 0.0204 ± 0.0007 | 0.0392 ± 0.0019 | 0.0175 ± 0.0014 | 0.02587 ± 0.0002 | 0.0169 ± 0.0007
3 | 215 to 220 | O=C(/C=C/c1cc(F)cc(F)c1)NCc1cc2c([nH]c3ccccc32)c(-c2cccc(F)c2)n1 [Compound 1d, (E)-3-(3,5-difluorophenyl)-N-((1-(3-fluorophenyl)-9H-pyrido[3,4-b]indol-3-yl)methyl)acrylamide] | 0.021 ± 0.0012 | 0.036 ± 0.0023 | 0.0165 ± 0.0006 | 0.0236 ± 0.0005 | 0.0182 ± 0.0003
4 | 148 to 150 | COc1cc(-c2nc(CNC(=O)/C=C/c3ccc(Cl)cc3)cc3c2[nH]c2ccccc23)cc(OC)c1OC [Compound 2f, (E)-3-(4-chlorophenyl)-N-((1-(3,4,5-trimethoxyphenyl)-9H-pyrido[3,4-b]indol-3-yl)methyl)acrylamide] | 0.0189 ± 0.0017 | 0.0356 ± 0.0021 | 0.0175 ± 0.0009 | 0.0268 ± 0.0004 | 0.0187 ± 0.0011
5 |  | COc1ccc(-c2nc(CNC(=O)/C=C/c3cccc(O)c3)cc3c2[nH]c2ccccc23)cc1 [Compound 3h, (E)-3-(3-hydroxyphenyl)-N-((1-(4-methoxyphenyl)-9H-pyrido[3,4-b]indol-3-yl)methyl)acrylamide] | 0.0189 ± 0.0014 | 0.0372 ± 0.0011 | 0.0138 | 0.0223 ± 0.0003 | 0.0163 ± 0.0003
6 | 175 to 178 | COc1cc(/C=C/C(=O)NCc2cc3c([nH]c4ccccc43)c(-c3cc(OC)c(OC)c(OC)c3)n2)ccc1O [Compound 2g, (E)-3-(4-hydroxy-3-methoxyphenyl)-N-((1-(3,4,5-trimethoxyphenyl)-9H-pyrido[3,4-b]indol-3-yl)methyl)acrylamide] | 0.0183 ± 0.0014 | 0.0431 ± 0.0013 | 0.0175 ± 0.0007 | 0.026 ± 0.0003 | 0.019 ± 0.0009
7 | 148 to 150 | COc1ccc(-c2nc(CNC(=O)/C=C/c3cc(OC)c(OC)c(OC)c3)cc3c2[nH]c2ccccc23)cc1 [Compound 3a, (E)-N-((1-(4-methoxyphenyl)-9H-pyrido[3,4-b]indol-3-yl)methyl)-3-(3,4,5-trimethoxyphenyl)acrylamide] | 0.0197 ± 0.0006 | 0.0393 ± 0.0017 | 0.0134 | 0.02289 ± 0.0002 | 0.0174 ± 0.0004
8 | 228 to 230 | COc1ccc(OC)c(/C=C/C(=O)NCc2cc3c([nH]c4ccccc43)c(-c3cccc(F)c3)n2)c1 [Compound 1e, (E)-3-(2,5-dimethoxyphenyl)-N-((1-(3-fluorophenyl)-9H-pyrido[3,4-b]indol-3-yl)methyl)acrylamide] | 0.0222 ± 0.0011 | 0.0396 ± 0.0018 | 0.0175 ± 0.0003 | 0.02187 ± 0.0002 | 0.0199 ± 0.0007
9 | 188 to 190 | COc1ccc(-c2nc(CNC(=O)/C=C/c3ccc(Cl)c(Cl)c3)cc3c2[nH]c2ccccc23)cc1 [Compound 3b, (E)-3-(3,4-dichlorophenyl)-N-((1-(4-methoxyphenyl)-9H-pyrido[3,4-b]indol-3-yl)methyl)acrylamide] | 0.0184 ± 0.0007 | 0.0375 ± 0.0014 | 0.0164 ± 0.0005 | 0.0216 ± 0.0004 | 0.023 ± 0.0005
10 | 130 to 135 | COc1ccc(-c2nc(CNC(=O)/C=C/c3cc(OC)ccc3OC)cc3c2[nH]c2ccccc23)cc1 [Compound 3e, (E)-3-(2,5-dimethoxyphenyl)-N-((1-(4-methoxyphenyl)-9H-pyrido[3,4-b]indol-3-yl)methyl)acrylamide] | 0.0189 ± 0.0012 | 0.0344 ± 0.0016 | 0.0165 ± 0.0007 | 0.0254 ± 0.0003 | 0.0221 ± 0.0004

Reference: patent publication US10392385B2, “N-((1-phenyl-9H-pyrido[3,4-b]indol-3-yl)methyl)cinnamamides as potential anticancer agents and preparation thereof” (Council of Scientific & Industrial Research, priority 2016, dated 2019)
